# From US8399465B2, “Compounds with two fused bicyclic heteroaryl moieties as modulators of leukotriene A4 hydrolase” (Janssen Pharmaceutica NV, priority 2009, dated 2013)
# Where a name gives a salt, the structure may show the parent alone.
# Biological target: T1, recombinant human LTA4 hydrolase (rhLTA4H) (Homo sapiens, UniProt P09960)
# T1 construct: made in house; host or cells: Spodoptera frugiperda (Sf-9) cells, baculovirus (pFastBac1)
# T1 sequence (P09960 1-611): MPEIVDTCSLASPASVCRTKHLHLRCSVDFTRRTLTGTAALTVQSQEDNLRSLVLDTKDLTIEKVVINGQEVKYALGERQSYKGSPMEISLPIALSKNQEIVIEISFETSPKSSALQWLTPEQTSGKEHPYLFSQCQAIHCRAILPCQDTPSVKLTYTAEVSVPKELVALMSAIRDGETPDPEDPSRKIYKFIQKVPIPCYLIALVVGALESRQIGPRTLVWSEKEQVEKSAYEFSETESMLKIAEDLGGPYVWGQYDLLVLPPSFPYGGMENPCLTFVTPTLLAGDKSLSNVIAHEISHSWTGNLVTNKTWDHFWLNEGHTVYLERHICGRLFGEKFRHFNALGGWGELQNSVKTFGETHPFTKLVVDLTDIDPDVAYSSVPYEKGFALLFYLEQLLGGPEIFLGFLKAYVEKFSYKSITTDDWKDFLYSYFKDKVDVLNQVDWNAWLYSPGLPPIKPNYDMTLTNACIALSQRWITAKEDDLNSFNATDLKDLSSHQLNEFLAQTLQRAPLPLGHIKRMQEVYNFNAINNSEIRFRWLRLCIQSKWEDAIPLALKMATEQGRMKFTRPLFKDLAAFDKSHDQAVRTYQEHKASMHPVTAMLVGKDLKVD
# Assay: Recombinant human LTA4 hydrolase assay for LTA4 hydrolase inhibitor activity
# Type: biochemical
# Conditions: rhLTA4H, LTB4 by immunoassay; single determination or average of two or more; mark after value = form tested: ′ free base, ″ hydrochloride, ^ formate; read-out: IC50
# Description: Assay 1: Recombinant Human LTA4 Hydrolase Assay for LTA4 Hydrolase Inhibitor Activity
# Compounds of the present invention were tested for LTA4 hydrolase inhibitor activity against recombinant human LTA4 hydrolase (rhLTA4H). Vectors were prepared and used to express rhLTA4H essentially as follows: LTA4 hydrolase encoding DNA was amplified by polymerase chain reaction (PCR) using a human placental cDNA library as a template. […] The amplified 1.9 kb DNA fragment encoding LTA4 hydrolase was isolated and cloned into the pFastBac1 vector (Invitrogen). Recombinant baculovirus was generated as described by the manufacturer, and used to infect Spodoptera frugiperda (Sf-9) cells. […] The purified enzyme solution was adjusted to contain 0.29 mg/mL LTA4 hydrolase, 50 mM Tris (pH 8.0), 150 mM NaCl, 5 mM dithiothreitol, 50% glycerol, and EDTA-free Complete protease inhibitor cocktail (Roche).
# LTA4 substrate was prepared from the methyl ester of LTA4 (Cayman Chemical) by treatment with 67 equiv of NaOH under nitrogen at rt for 40 min. The LTA4 substrate in its free acid form was kept frozen at −80° C. until needed. Each compound was diluted to different concentrations in assay buffer (from Assay Designs) containing 10% DMSO. A 25-μL aliquot of each compound dilution was incubated for 10 min at rt with an equal volume of assay buffer containing 10 ng of recombinant human LTA4H. The solution was then adjusted to 200 μL with assay buffer. […] Each reaction was carried out at rt for 30 min. The reaction was stopped by diluting 10 μL of the reaction mixture with 200 μL of assay buffer. LTB4 was quantified in the diluted sample by a commercially available enzyme-linked immunoassay (Cayman Chemical Co.), as recommended by the manufacturer. Positive controls, under essentially identical conditions but without addition of an inhibitor compound, and negative controls, containing all assay components except enzyme, were routinely run in each experiment. IC50 values were determined by nonlinear regression of the activity data at different compound concentrations using Graphpad Prism 4.0, one site binding competition.
# The values presented here are the result of a single determination or an average of two or more determinations. Compounds that were not tested are indicated as such by a “NT” designation.
row,SMILES,IC50
1,"CC(=O)N1CCC2(CCN(Cc3coc4cc(Oc5nc6ncccc6s5)ccc34)CC2)C1 [Example 265, 1-{8-[6-(Thiazolo[4,5-b]pyridin-2-yloxy)-benzofuran-3-ylmethyl]-2,8-diaza-spiro[4.5]dec-2-yl}-ethanone]",< 1 nM
2,"CC(=O)N1C[C@@H]2C[C@H]1CN2Cc1cc2ncc(Oc3nc4ncccc4s3)cc2o1 [Example 274, (1S,4S)-1-{5-[6-(Thiazolo[4,5-b]pyridin-2-yloxy)-furo[3,2-b]pyridin-2-ylmethyl]-2,5-diaza-bicyclo[2.2.1]hept-2-yl}-ethanone formate]",250 nM
3,"c1cnc(N2CCN(Cc3coc4cc(Oc5nc6ncccc6s5)ccc34)CC2)nc1 [Example 292, 2-[3-(4-Pyrimidin-2-yl-piperazin-1-ylmethyl)-benzofuran-6-yloxy]-thiazolo[4,5-b]pyridine formate]",40 nM
4,"CC(=O)N[C@H]1C[C@H]2CC[C@@H](C1)N2Cc1cc2ncc(Oc3nc4ncccc4s3)cc2o1 [Example 296, meso-endo-N-{8-[6-(Thiazolo[4,5-b]pyridin-2-yloxy)-furo[3,2-b]pyridin-2-ylmethyl]-8-aza-bicyclo[3.2.1]oct-3-yl}-acetamide formate]",850 nM
5,"c1cnc2nc(Oc3ccc4c(CNCCN5CCCCC5)coc4c3)sc2c1 [Example 305, (2-Piperidin-1-yl-ethyl)-[6-(thiazolo[4,5-b]pyridin-2-yloxy)-benzofuran-3-ylmethyl]-amine]",31 nM
6,"CCN(CC)CCNCc1coc2cc(Oc3nc4ncccc4s3)ccc12 [Example 317, N,N-Diethyl-N′-[6-(thiazolo[4,5-b]pyridin-2-yloxy)-benzofuran-3-ylmethyl]-ethane-1,2-diamine]",35 nM
7,"CCOC(=O)CCN(C)Cc1coc2cc(Oc3nc4ncccc4s3)ccc12 [Example 334, 3-{Methyl-[6-(thiazolo[4,5-b]pyridin-2-yloxy)-benzofuran-3-ylmethyl]-amino}-propionic acid ethyl ester]",20 nM
8,"CC(=O)N[C@@H]1C[C@H]2CC[C@@H](C1)N2Cc1cc2ncc(Oc3nc4ncccc4s3)cc2o1 [Example 336, meso-exo-N-{8-[6-(Thiazolo[4,5-b]pyridin-2-yloxy)-furo[3,2-b]pyridin-2-ylmethyl]-8-aza-bicyclo[3.2.1]oct-3-yl}-acetamide]",110 nM
9,"CC(=O)N1C[C@H]2CC[C@@H](C1)N2Cc1cc2ncc(Oc3nc4ncccc4s3)cc2o1 [Example 338, meso-1-{8-[6-(Thiazolo[4,5-b]pyridin-2-yloxy)-furo[3,2-b]pyridin-2-ylmethyl]-3,8-diaza-bicyclo[3.2.1]oct-3-yl}-ethanone formate]",450 nM
10,"O=C1CCCN1C1CCN(Cc2cc3ncc(Oc4nc5ncccc5s4)cc3o2)CC1 [Example 341, 1-{1-[6-(Thiazolo[4,5-b]pyridin-2-yloxy)-furo[3,2-b]pyridin-2-ylmethyl]-piperidin-4-yl}-pyrrolidin-2-one]",470 nM
11,"CCN(C(=O)c1coc2cc(Oc3nc4ncccc4s3)ccc12)C1CCCCC1 [Example 381, 6-(Thiazolo[4,5-b]pyridin-2-yloxy)-benzofuran-3-carboxylic acid cyclohexyl-ethyl-amide]",110 nM
12,"O=C(c1coc2cc(Oc3nc4ncccc4s3)ccc12)N1CCC2CCCCC2C1 (stereo not shown) [Example 385, (Octahydro-isoquinolin-2-yl)-[6-(thiazolo[4,5-b]pyridin-2-yloxy)-benzofuran-3-yl]-methanone]",1530 nM
13,"O=C(c1coc2cc(Oc3nc4ncccc4s3)ccc12)N1CCc2ccccc2C1 [Example 386, (3,4-Dihydro-1H-isoquinolin-2-yl)-[6-(thiazolo[4,5-b]pyridin-2-yloxy)-benzofuran-3-yl]-methanone]",210 nM

# Next, values leading:
row,IC50,SMILES
1,467 nM,"CC(=O)NC1CCN(Cc2coc3cc(Oc4nc5nc(C)ccc5s4)ccc23)CC1 [Example 250, N-{1-[6-(5-Methyl-thiazolo[4,5-b]pyridin-2-yloxy)-benzofuran-3-ylmethyl]-piperidin-4-yl}-acetamide formate]"
2,108 nM,"CC(=O)NC1CCN(Cc2coc3cc(Oc4nc5ncc(Cl)cc5s4)ccc23)CC1 [Example 254, N-{1-[6-(6-Chloro-thiazolo[4,5-b]pyridin-2-yloxy)-benzofuran-3-ylmethyl]-piperidin-4-yl}-acetamide formate]"
3,160 nM,"CC(=O)NC1CCN(Cc2cc3ncc(Oc4nc5ncccc5s4)cc3o2)CC1 [Example 273, N-{1-[6-(Thiazolo[4,5-b]pyridin-2-yloxy)-furo[3,2-b]pyridin-2-ylmethyl]-piperidin-4-yl}-acetamide formate]"
4,19 nM,"c1ccc2c(c1)CCN(Cc1coc3cc(Oc4nc5ncccc5s4)ccc13)C2 [Example 293, 2-[6-(Thiazolo[4,5-b]pyridin-2-yloxy)-benzofuran-3-ylmethyl]-1,2,3,4-tetrahydro-isoquinoline formate]"
5,24 nM,"CN1CCC(N(C)Cc2coc3cc(Oc4nc5ncccc5s4)ccc23)CC1 [Example 294, Methyl-(1-methyl-piperidin-4-yl)-[6-(thiazolo[4,5-b]pyridin-2-yloxy)-benzofuran-3-ylmethyl]-amine]"
6,230 nM,"NS(=O)(=O)c1ccc(CCNCc2coc3cc(Oc4nc5ccccc5s4)ccc23)cc1 [Example 311, 4-(2-{[6-(Benzothiazol-2-yloxy)-benzofuran-3-ylmethyl]-amino}-ethyl)-benzenesulfonamide]"
7,< 1 nM,"CCN(Cc1coc2cc(Oc3nc4ncccc4s3)ccc12)C1CCCCC1 [Example 318, Cyclohexyl-ethyl-[6-(thiazolo[4,5-b]pyridin-2-yloxy)-benzofuran-3-ylmethyl]-amine formate]"
8,52 nM,"c1ccc(OCCNCc2coc3cc(Oc4nc5ncccc5s4)ccc23)cc1 [Example 319, (2-Phenoxy-ethyl)-[6-(thiazolo[4,5-b]pyridin-2-yloxy)-benzofuran-3-ylmethyl]-amine formate]"
9,15 nM,"c1ccc2c(c1)CC(NCc1coc3cc(Oc4nc5ncccc5s4)ccc13)C2 [Example 320, Indan-2-yl-[6-(thiazolo[4,5-b]pyridin-2-yloxy)-benzofuran-3-ylmethyl]-amine formate]"
10,54 nM,"CCN(CC)Cc1cc2cc(Oc3nc4ncccc4s3)ccc2o1 [Example 329, Diethyl-[5-(thiazolo[4,5-b]pyridin-2-yloxy)-benzofuran-2-ylmethyl]-amine formate]"
11,270 nM,"NC(=O)N1C[C@@H]2C[C@H]1CN2Cc1cc2ncc(Oc3nc4ncccc4s3)cc2o1 [Example 337, (1S,4S)-5-[6-(Thiazolo[4,5-b]pyridin-2-yloxy)-furo[3,2-b]pyridin-2-ylmethyl]-2,5-diaza-bicyclo[2.2.1]heptane-2-carboxylic acid amide formate]"
12,250 nM,"CC(=O)N1CCN(Cc2cc3ncc(Oc4nc5ncccc5s4)cc3o2)CC1 [Example 343, 1-{4-[6-(Thiazolo[4,5-b]pyridin-2-yloxy)-furo[3,2-b]pyridin-2-ylmethyl]-piperazin-1-yl}-ethanone formate]"
13,13 nM,"COc1ccc(CNCc2coc3cc(Oc4nc5ncccc5s4)ccc23)cc1 [Example 346, (4-Methoxy-benzyl)-[6-(thiazolo[4,5-b]pyridin-2-yloxy)-benzofuran-3-ylmethyl]-amine]"
14,110 nM,"CN(Cc1ccccc1)C(=O)c1cc2cc(Oc3nc4ncccc4s3)ccc2o1 [Example 365, 5-(Thiazolo[4,5-b]pyridin-2-yloxy)-benzofuran-2-carboxylic acid benzyl-methyl-amide]"
15,160 nM,"CNC(=O)c1coc2cc(Oc3nc4ncccc4s3)ccc12 [Example 367, 6-(Thiazolo[4,5-b]pyridin-2-yloxy)-benzofuran-3-carboxylic acid methylamide]"
